Results: patent publication US6472397B1, “Nitrogen-containing heterocyclic compounds having antiplatelet aggregation effect and medicinal use thereof” (Meiji Seika Kaisha, Ltd., priority 1998, dated 2002)
pIC50: −log10 of the molar value.

Legend:
[1] = system: human PRP (platelet rich plasma); experiment: Platelet aggregation inhibiting effect, ADP-induced, human PRP; format: cell-based; conditions: ADP final concentration 5 μM, preincubation 2 minutes, read-out: IC50 calculated from the aggregation rate
Experimental: Among the compounds represented by the general formula (I) according to the present invention, the platelet aggregation inhibiting effect of the above compound A was examined with human PRP (platelet rich plasma).
A 9 volume sample of blood was taken out through an injection syringe having 1 volume of 3.8% sodium citrate added thereto from the vein of normal human (male), centrifuged at 170×g for 10 minutes at room temperature, and the resulting supernatant was isolated as PRP. The residual blood from which PRP had been isolated was centrifuged at 2,700×g for 15 minutes, and the resulting supernatant was isolated as platelet poor plasma (PPP).
The platelet aggregation test was carried out with AGGRIGOMETER (PAM-8C) manufactured by MEBANICS. The substance to be tested is dissolved in 50% DMSO-physiological saline, 50% methanol-physiological saline, or a physiological saline. The preincubation time of the substance to be tested and PRP was set as 2 minutes. An aggregation driving agent ADP (CHRONO-PARREAGENTS384 ADP, CHRONO-LOG Corp.) was diluted with physiological saline so that the final concentration is 5 μM.
The platelet aggregation inhibiting activity was calculated from the following equation as the suppressive rate against the […] by ADP when no compound to be tested was added:
Platelet aggregation inhibiting activity (%)= [formula]

[2] = Oral administration test: bioavailability in rats; format: in vivo; conditions: result in words
Experimental: 1) Preparation of a Solution to be Administered
The compound was dissolved or suspended in either of the solvents in which the compound is preferably dispersed or dissolved including distilled water, CMC-Na, Tween 80, and HCO 60 to prepare the liquids for intravenous injection and oral administration. The liquids for intravenous injection and oral administration have a concentration of 0.3 mg/ml and 5 mg/ml, respectively. The concentrations of the compounds were determined by HPLC.
Rats having fasted for 16-20 hours were subjected to cannulation with a polyethylene tube (PE50) into femoral artery. […] The plasma samples were treated according to the method described below, and the activity substance was then measured by HPLC. […]
Among the observed values after administration, the observed values corresponding to the maximum plasma concentration (Cmax) and the time for reaching the maximum plasma concentration (Tmax) were confirmed. […] The area below the plasma concentration-time curve from 0 to infinity (AUCinfinite) was calculated by the trapezoidal method until the final observed value, and after the final observed value from the final observed value/kel as the sum of respective values. […]
Bioavailability (B.A. (%)) was calculated from the following equation: […]

| SMILES | pIC50 [1] | absorption capacity via oral administration [2] |
| --- | --- | --- |
| O=C(O)COc1ccc(C(=O)CN2CCN(C3CCNCC3)CC2=O)cc1 [Compound A] | 7.38 | – |
| CCOC(=O)COc1ccc(C(=O)CNC(=O)c2cc3c(s2)CCN(C(=O)OC(C)OC(C)=O)C3)cc1OCC(=O)OCC (centres unmarked) [Compound B, Diethyl [[4-[[[[5-(1-Acetoxyethyl)oxycarbonyl-4,5,6,7-tetrahydrothieno[3,2-c]pyridin-2-yl]carbonyl]amino]-acetyl]-o-phenylene]dioxy]diacetate] | – | no high absorption capacity |
